# Biological target: T1, Novozym 435 (Candida antarctica lipase B immobilized on acrylic resin) (Moesziomyces antarcticus, UniProt P41365)
# T1 construct: purchased
# Assay: Enzymatic hydrolysis of oleyl glycolyl retinoate with Novozym 435
# Format: in vitro ADME
# Conditions: toluene / pH 7 phosphate buffer
# Procedure: Oleyl glycolyl retinoate (50 mg; 0.082 mmol) was dissolved in 1 mL of toluene. pH 7 Phosphate buffer (1 mL) was added followed by Novozym 435 (50 mg). The mixture was stirred for 1 h at ambient temperature to afford 5% hydrolysis according to HPLC analysis.
# T1 sequence (P41365 26-342): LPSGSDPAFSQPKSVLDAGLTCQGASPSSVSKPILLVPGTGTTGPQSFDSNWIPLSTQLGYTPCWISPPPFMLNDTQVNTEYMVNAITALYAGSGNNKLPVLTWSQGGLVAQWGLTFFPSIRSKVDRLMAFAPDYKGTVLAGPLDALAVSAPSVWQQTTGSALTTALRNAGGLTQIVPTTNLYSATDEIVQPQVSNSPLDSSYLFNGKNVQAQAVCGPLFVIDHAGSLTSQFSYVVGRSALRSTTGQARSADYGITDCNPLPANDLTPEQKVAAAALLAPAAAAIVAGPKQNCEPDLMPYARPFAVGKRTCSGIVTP
smiles,measurement,setting,value
"CCCCCCCC/C=C\CCCCCCCCOC(=O)COC(=O)/C=C(C)/C=C/C=C(C)/C=C/C1=C(C)CCCC1(C)C [Oleyl glycolyl retinoate, Oleyl Glycolyl Retinoate]",hydrolysis according to HPLC analysis,"Novozym 435 (50 mg), stirred 1 h at ambient temperature",5%
same,"hydrolysis, control reaction without enzyme","no enzyme, ambient temperature",no hydrolysis
